Results from ChEMBL document CHEMBL2069175, “Antiplasmodial activities of 4-aminoquinoline-statine compounds” (Bioorg Med Chem Lett, 2012).

How the values were obtained:
[1] = test system: Plasmodium falciparum; assay: microbe, parasite or virus in culture; details: D10, 72 h
Description: Antiplasmodial activity against chloroquine-sensitive Plasmodium falciparum D10 after 72 hrs by parasite lactate dehydrogenase assay

[2] = biological target: Plasmepsin II (Plasmodium falciparum, UniProt P46925); assay: Inhibition of Plasmodium falciparum PLM2 using Lys-Glu-Phe-Val-Phe-NPhe-Ala-Leu-Lys as substrate by spectrophotometry
[3] = test system: Plasmodium falciparum; assay: microbe, parasite or virus in culture; details: W2, 72 h
Description: Antiplasmodial activity against chloroquine-resistant Plasmodium falciparum W2 after 72 hrs by parasite lactate dehydrogenase assay

[4] = Inhibition of Plasmodium vivax PLM4 using Lys-Glu-Phe-Val-Phe-NPhe-Ala-Leu-Lys as substrate by spectrophotometry
[5] = Inhibition of Plasmodium ovale PLM4 using Lys-Glu-Phe-Val-Phe-NPhe-Ala-Leu-Lys as substrate by spectrophotometry
[6] = Inhibition of Plasmodium falciparum PLM4 using Lys-Glu-Phe-Val-Phe-NPhe-Ala-Leu-Lys as substrate by spectrophotometry
[7] = Inhibition of Plasmodium malariae PLM4 using Lys-Glu-Phe-Val-Phe-NPhe-Ala-Leu-Lys as substrate by spectrophotometry
[8] = biological target: Cathepsin D (Homo sapiens, UniProt P07339); assay: Inhibition of human cathepsin D
[9] = test system: Plasmodium falciparum; assay: Antiplasmodial activity against chloroquine-resistant Plasmodium falciparum W2; format: functional, organism-based
[10] = test system: Plasmodium falciparum; assay: Antiplasmodial activity against chloroquine-sensitive Plasmodium falciparum D10; format: functional, organism-based
[11] = Cytotoxicity against human HDF at 100 uM; details: HDF cells, read-out: INH

Sequence of Cathepsin D (P07339 65-162 limits assumed): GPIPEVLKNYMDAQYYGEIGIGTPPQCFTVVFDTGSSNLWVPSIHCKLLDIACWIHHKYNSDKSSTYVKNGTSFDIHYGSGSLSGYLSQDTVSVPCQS
Sequence of Cathepsin D (P07339 169-412 limits assumed): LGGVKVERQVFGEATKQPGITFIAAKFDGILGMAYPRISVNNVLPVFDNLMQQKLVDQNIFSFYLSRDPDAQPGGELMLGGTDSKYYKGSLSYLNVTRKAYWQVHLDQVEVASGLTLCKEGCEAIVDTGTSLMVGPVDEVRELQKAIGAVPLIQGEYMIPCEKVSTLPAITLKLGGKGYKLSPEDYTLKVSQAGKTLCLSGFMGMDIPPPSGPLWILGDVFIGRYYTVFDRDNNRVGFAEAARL
Sequence of Plasmepsin II (P46925 whole entry): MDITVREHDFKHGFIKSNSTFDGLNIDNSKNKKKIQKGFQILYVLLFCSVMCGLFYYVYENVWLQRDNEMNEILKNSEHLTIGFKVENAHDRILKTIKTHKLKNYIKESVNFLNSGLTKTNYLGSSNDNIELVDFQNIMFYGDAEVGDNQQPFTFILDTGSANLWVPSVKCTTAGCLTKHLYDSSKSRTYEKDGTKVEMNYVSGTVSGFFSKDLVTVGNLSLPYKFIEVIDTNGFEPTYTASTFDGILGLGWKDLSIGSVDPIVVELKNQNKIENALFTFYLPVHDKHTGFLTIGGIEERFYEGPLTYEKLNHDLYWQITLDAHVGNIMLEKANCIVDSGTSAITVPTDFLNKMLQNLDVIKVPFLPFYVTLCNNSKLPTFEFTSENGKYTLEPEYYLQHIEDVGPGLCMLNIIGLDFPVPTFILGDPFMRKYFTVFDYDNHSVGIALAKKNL

Row | Structure (SMILES) | IC50 [1] | Ki [2] | IC50 [3] | Ki [4] | Ki [5] | Ki [6] | Ki [7] | Ki ([2]; read-out: Ki) | IC50 [8] | IC50 [9] | IC50 [10] | cytotoxicity at 100 µM [11]
1 | CC(C)C[C@H](NC(=O)OCc1ccccc1)C(=O)N[C@@H](C)C(=O)NCCCNc1ccnc2cc(Cl)ccc12 | 197 nM | Not Active | 1680 nM | – | – | – | – | – | – | – | – | –
2 | CCCCNC(=O)C[C@H](O)[C@H](CC(C)C)NC(=O)[C@@H](NC(=O)c1ccc(Oc2ccc(C(=O)N[C@@H](CC(C)C)C(=O)N[C@@H](C)C(=O)NCCCNc3ccnc4ccccc34)cc2)cc1)[C@@H](C)CC | 161 nM | – | 474 nM | 0.43 nM | 8.1 nM | 6.7 nM | 0.87 nM | 2.6 nM | 300 nM | – | – | –
3 | CCCCNC(=O)C[C@H](O)[C@H](CC(C)C)NC(=O)[C@@H](NC(=O)c1ccc(Oc2ccc(C(=O)NCCCNc3ccnc4cc(Cl)ccc34)cc2)cc1)[C@@H](C)CC | 177 nM | – | 78 nM | 0.7 nM | 11 nM | 5.4 nM | 0.93 nM | 2.3 nM | 220 nM | – | – | –
4 | CCCCNC(=O)C[C@H](O)[C@H](CC(C)C)NC(=O)[C@@H](NC(=O)c1ccc(Oc2ccc(C(=O)N[C@@H](CC(C)C)C(=O)N[C@@H](CCCCN)C(=O)NCCCC(C)Nc3cc(OC)cc4cccnc34)cc2)cc1)[C@@H](C)CC (some centres not stated) | 400 nM | – | 700 nM | 1.2 nM | 10 nM | 0.5 nM | 1.2 nM | 0.4 nM | – | 400 nM | 400 nM | 50%
5 | CCCCNC(=O)C[C@H](O)[C@H](CC(C)C)NC(=O)[C@@H](NC(=O)c1ccc(Oc2ccc(C(=O)OCc3ccccc3)cc2)cc1)[C@@H](C)CC | 3850 nM | – | 4680 nM | 4.7 nM | 0.34 nM | 2.6 nM | 2.1 nM | 1.9 nM | – | – | – | –
6 | CCCCNC(=O)C[C@H](O)[C@H](CC(C)C)NC(=O)[C@@H](NC(=O)c1ccc(Oc2ccc(C(=O)N[C@@H](C)C(=O)NCCCNc3ccnc4cc(Cl)ccc34)cc2)cc1)[C@@H](C)CC | 114 nM | – | 64 nM | 0.48 nM | 8.5 nM | 8.7 nM | 2.4 nM | 3.8 nM | 540 nM | – | – | –
7 | CCN(CC)CCCC(C)Nc1ccnc2cc(Cl)ccc12 (configuration not stated) [CHLOROQUINE] | – | Not Active | – | – | – | – | – | – | – | – | – | –
8 | CCCCNC(=O)C[C@H](O)[C@H](CC(C)C)NC(=O)[C@@H](NC(=O)c1ccc(Oc2ccc(C(=O)NCc3ccccc3)cc2)cc1)[C@@H](C)CC | > 7000 nM | – | > 7000 nM | 19 nM | 1.1 nM | 20 nM | 5.8 nM | 1.3 nM | – | – | – | –
